From patent US8940731B2, “Substituted pyridyl amide compounds as modulators of the histamine H3 receptor” (Janssen Pharmaceutica NV, priority 2006, dated 2015)
Counter-ions that a name gives are not always drawn. Like-named read-outs stand apart in the source and are kept apart here.

What was measured:
human H3 receptor = target: T1, human H3 receptor (Homo sapiens, UniProt Q9Y5N1); test: Cyclic AMP Accumulation (human H3 receptor); assay type: cell-based
T1 construct: expressed in transfected cells; host or cells: SK-N-MC sublines with a reporter construct
T1 sequence (Q9Y5N1 whole entry): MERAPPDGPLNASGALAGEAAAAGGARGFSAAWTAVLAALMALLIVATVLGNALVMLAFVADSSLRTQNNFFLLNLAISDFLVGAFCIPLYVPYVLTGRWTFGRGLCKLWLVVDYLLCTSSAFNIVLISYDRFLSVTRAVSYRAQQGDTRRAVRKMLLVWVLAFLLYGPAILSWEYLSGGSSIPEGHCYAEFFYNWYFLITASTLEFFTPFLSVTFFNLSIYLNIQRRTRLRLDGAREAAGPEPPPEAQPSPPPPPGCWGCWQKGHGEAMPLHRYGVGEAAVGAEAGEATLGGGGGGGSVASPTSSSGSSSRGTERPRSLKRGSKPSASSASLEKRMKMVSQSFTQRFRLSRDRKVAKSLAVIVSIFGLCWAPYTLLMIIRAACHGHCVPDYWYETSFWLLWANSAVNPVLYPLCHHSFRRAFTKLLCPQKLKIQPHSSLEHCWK
Description: (§1) Sublines of SK-N-MC cells were created that expressed a reporter construct and either the human or rat H3 receptor.

[1] = target: T2, cloned human H3 receptors (Homo sapiens, UniProt Q9Y5N1); test: H3 Receptor Binding (Human); settings: cloned human H3 receptors stably expressed in SK-N-MC cells; average of the results obtained; read-out: Human H3 Ki
T2 construct: expressed in transfected cells
T2 sequence (Q9Y5N1 whole entry): as above
Procedure: H3 Receptor Binding (Human)
Binding of compounds to the cloned human H3 receptors, stably expressed in SK-N-MC cells, was performed as described by Barbier, A. J. et al. (Br. J. Pharmacol. 2004, 143(5), 649-661).

Rat H3 [2] = target: T3, Rat H3 (Rattus norvegicus, UniProt Q9QYN8); test: cell-based
Description: as §1
Target sequence in this assay (Q9QYN8 whole entry): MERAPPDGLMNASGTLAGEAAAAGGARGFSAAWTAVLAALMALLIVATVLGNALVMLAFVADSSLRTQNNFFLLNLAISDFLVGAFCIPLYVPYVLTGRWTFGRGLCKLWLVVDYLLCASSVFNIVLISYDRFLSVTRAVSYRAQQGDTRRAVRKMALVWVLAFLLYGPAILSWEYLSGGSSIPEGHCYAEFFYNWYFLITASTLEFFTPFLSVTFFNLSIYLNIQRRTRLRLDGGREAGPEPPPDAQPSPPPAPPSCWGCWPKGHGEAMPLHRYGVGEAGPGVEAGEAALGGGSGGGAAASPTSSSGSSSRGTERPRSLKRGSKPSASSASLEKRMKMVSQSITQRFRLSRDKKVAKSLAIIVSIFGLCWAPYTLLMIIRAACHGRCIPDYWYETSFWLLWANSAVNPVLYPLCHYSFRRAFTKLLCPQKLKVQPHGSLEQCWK

Rat H3 [3] = target: T3, Rat H3; test: H3 Receptor Binding (Rat); settings: rat brain membranes without cerebellum, 0.8 nM N-[3H]-α-methylhistamine, 60 min at 25° C.; average of the results obtained
Procedure: H3 Receptor Binding (Rat)
A rat brain without cerebellum (Zivic Laboratories Inc., Pittsburgh, Pa.) was homogenized in 50 mM Tris-HCl/5 mM EDTA and centrifuged at 1,000 rpm for 5 min. The supernatant was removed and recentrifuged at 15,000 rpm for 30 min. Pellets were rehomogenized in 50 mM Tris/5 mM EDTA (pH 7.4). Membranes were incubated with 0.8 nM N-[^3H]-α-methylhistamine plus/minus test compounds for 60 min at 25° C. and harvested by rapid filtration over GF/C glass fiber filters (pretreated with 0.3% polyethylenimine) followed by four washes with buffer. Nonspecific binding was defined in the presence of 100 μM histamine.
Target sequence in this assay (Q9QYN8 1-397 isoform Q9QYN8-3): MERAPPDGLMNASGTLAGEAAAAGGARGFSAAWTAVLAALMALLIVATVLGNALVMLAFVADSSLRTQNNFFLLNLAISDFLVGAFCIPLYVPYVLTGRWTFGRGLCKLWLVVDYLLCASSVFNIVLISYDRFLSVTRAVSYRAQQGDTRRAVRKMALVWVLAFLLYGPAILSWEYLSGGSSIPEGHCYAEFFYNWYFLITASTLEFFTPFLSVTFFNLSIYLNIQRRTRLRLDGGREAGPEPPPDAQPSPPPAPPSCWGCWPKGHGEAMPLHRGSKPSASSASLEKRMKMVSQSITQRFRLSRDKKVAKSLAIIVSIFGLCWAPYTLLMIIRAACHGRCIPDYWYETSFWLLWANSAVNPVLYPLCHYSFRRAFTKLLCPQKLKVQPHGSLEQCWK

[4] = SK-N-MC subline expressing reporter construct and human H3 receptor, average, read-out: Human pA2 (converted)
[5] = SK-N-MC subline expressing reporter construct and rat H3 receptor, average, read-out: Rat pA2 (converted)
[6] = SK-N-MC subline expressing reporter construct and human H3 receptor, average
[7] = SK-N-MC subline expressing reporter construct and rat H3 receptor, average

Kb (human H3 receptor; [4]) | Kb (Rat H3 [2]; [5]) | Human pA2 (human H3 receptor; [6]) | Compound | Ki [1] | Ki (Rat H3 [3]) | Rat pA2 (Rat H3 [2]; [7]) | Kb (human H3 receptor) | Kb (Rat H3 [2])
0.309 nM | 1.2 nM |  | O=C(c1ccc(Oc2ccccc2Cl)nc1)N1CCCN(C2CCC2)CC1 [Example 73, [6-(2-Chloro-phenoxy)-Pyridin-3-yl]-(4-cyclobutyl-[1,4]diazepan-1-yl)-methanone] | 4 nM |  |  |  | 
 |  |  | N#Cc1nc(C(=O)N2CCCN(C3CC3)CC2)ccc1Oc1ccc(F)cc1 [Example 59, 6-(4-Cyclopropyl-[1,4]diazepane-1-carbonyl)-3-(4-fluoro-phenoxy)-pyridine-2-carbonitrile] | 3 nM |  |  | 3.09 nM | 26.9 nM
 |  |  | O=C(c1ccc(Oc2ccc(Cl)c(Cl)c2)cn1)N1CCCN(C2CCC2)CC1 [Example 51, (4-Cyclobutyl-[1,4]diazepan-1-yl)-[5-(3,4-dichloro-phenoxy)-pyridin-2-yl]-methanone trifluoroacetic acid salt] | 2 nM | 60 nM |  | 2.29 nM | 21.9 nM
 |  | 9.40 | O=C(c1ccc(Oc2cccc(F)c2)nc1)N1CCCN(C2CCC2)CC1 [Example 39, (4-Cyclobutyl-[1,4]diazepan-1-yl)-[6-(3-fluoro-phenoxy)-pyridin-3-yl]-methanone] | 1 nM | 21 nM | 8.38 |  | 
 |  |  | N#Cc1nc(C(=O)N2CCCN(C3CC3)CC2)ccc1Oc1ccccc1F [Example 61, 6-(4-Cyclopropyl-[1,4]diazepane-1-carbonyl)-3-(2-fluoro-phenoxy)-pyridine-2-carbonitrile] | 6 nM |  |  | 3.63 nM | 32.4 nM
 |  |  | O=C(c1ccc(Oc2ccc(Cl)c(Cl)c2)nc1)N1CCCN(C2CCCC2)CC1 [Example 66, (4-Cyclopentyl-[1,4]diazepan-1-yl)-[6-(3,4-dichloro-phenoxy)-pyridin-3-yl]-methanone] | 1 nM |  |  | 1.12 nM | 11.5 nM
 |  |  | CSc1ccc(Oc2ccc(C(=O)N3CCCN(C4CCC4)CC3)cn2)cc1C [Example 40, (4-Cyclobutyl-[1,4]diazepan-1-yl)-[6-(3-methyl-4-methylsulfanyl-phenoxy)-pyridin-3-yl]-methanone] | 1 nM | 36 nM |  | 1.32 nM | 13.5 nM
0.708 nM | 4.37 nM |  | O=C(c1ccc(Oc2cccc(Cl)c2)nc1)N1CCCN(C2CCC2)CC1 [Example 24, [6-(3-Chloro-phenoxy)-pyridin-3-yl]-(4-cyclobutyl-[1,4]diazepan-1-yl)-methanone] | 1 nM | 15 nM |  |  | 
 |  |  | Cc1ccccc1Oc1ccc(C(=O)N2CCCN(C3CCC3)CC2)cn1 [Example 102, (4-Cyclobutyl-[1,4]diazepan-1-yl)-(6-o-tolyloxy-pyridin-3-yl)-methanone] | 1 nM | 17 nM |  | 0.2 nM | 1.2 nM
 |  |  | O=C(c1ccc(Oc2ccccc2)nc1)N1CCCN(C2CCCC2)CC1 [Example 65, (4-Cyclopentyl-[1,4]diazepan-1-yl)-(6-phenoxy-pyridin-3-yl)-methanone] | 2 nM |  |  | 1.15 nM | 0.661 nM
 |  |  | O=C(c1ccc(Oc2ccc(F)cc2)nc1)N1CCCN(C2CCCC2)CC1 [Example 67, (4-Cyclopentyl-[1,4]diazepan-1-yl)-[6-(4-fluoro-phenoxy)-pyridin-3-yl]-methanone] | 2 nM |  |  | 1.35 nM | 6.76 nM
 |  |  | Cc1ccc(Oc2ccc(C(=O)N3CCCN(C4CCC4)CC3)cn2)cc1 [Example 104, (4-Cyclobutyl-[1,4]diazepan-1-yl)-(6-p-tolyloxy-pyridin-3-yl)-methanone] | 2 nM |  |  | 0.724 nM | 4.27 nM
 |  | 8.53 | N#Cc1cccc(Oc2ccc(C(=O)N3CCCN(C4CC4)CC3)cn2)c1 [Example 11, 3-[5-(4-Cyclopropyl-[1,4]diazepane-1-carbonyl)-pyridin-2-yloxy]-benzonitrile] | 7 nM | 447 nM |  |  | 
 |  |  | O=C(c1ccc(Oc2ccc(F)cc2F)nc1)N1CCCN(C2CCC2)CC1 [Example 30, (4-Cyclobutyl-[1,4]diazepan-1-yl)-[6-(2,4-difluoro-phenoxy)-pyridin-3-yl]-methanone] | 1 nM | 26 nM |  | 0.537 nM | 4.17 nM
 |  |  | O=C(c1ccc(Oc2ccc(F)cc2)nc1)N1CCN(C2CCCC2)CC1 [Example 74, (4-Cyclopentyl-piperazin-1-yl)-[6-(4-fluoro-phenoxy)-pyridin-3-yl]-methanone] | 7 nM |  |  | 8.91 nM | 36.3 nM
 | 3.8 nM | 9.22 | O=C(c1ccc(Oc2ccc(Cl)cc2)nc1)N1CCCN(C2CCC2)CC1 [Example 25, [6-(4-Chloro-phenoxy)-pyridin-3-yl]-(4-cyclobutyl-[1,4]diazepan-1-yl)-methanone] | 1 nM | 25 nM |  |  | 
 | 3.16 nM | 9.48 | O=C(c1ccc(Sc2ccccc2)nc1)N1CCCN(C2CCC2)CC1 [Example 86, (4-Cyclobutyl-[1,4]diazepan-1-yl)-(6-phenylsulfanyl-pyridin-3-yl)-methanone] | 1 nM |  |  |  | 
 |  |  | N#Cc1nc(C(=O)N2CCCN(C3CC3)CC2)ccc1Oc1cccnc1 [Example 56, 6-(4-Cyclopropyl-[1,4]diazepane-1-carbonyl)-3-(pyridin-3-yloxy)-pyridine-2-carbonitrile hydrochloride salt] | 5 nM | 179 nM |  | 2.34 nM | 13.8 nM
 |  |  | O=C(c1ccc(Oc2ccccc2F)nc1)N1CCCN(C2CC2)CC1 [Example 31, (4-Cyclopropyl-[1,4]diazepan-1-yl)-[6-(2-fluoro-phenoxy)-pyridin-3-yl]-methanone] | 4 nM | 39 nM |  | 2.4 nM | 7.59 nM
 |  |  | O=C(c1ccc(Oc2ccc(Cl)c(Cl)c2)nc1)N1CCCN(C2CC2)CC1 [Example 9, (4-Cyclopropyl-[1,4]diazepan-1-yl)-[6-(3,4-dichloro-phenoxy)-pyridin-3-yl]-methanone] | 11 nM | 130 nM |  | 8.71 nM | 44.7 nM
 |  |  | O=C(c1ccc(Oc2ccc(F)c(F)c2)nc1)N1CCCN(C2CCC2)CC1 [Example 26, (4-Cyclobutyl-[1,4]diazepan-1-yl)-[6-(3,4-difluoro-phenoxy)-pyridin-3-yl]-methanone] | 1 nM | 16 nM |  | 0.229 nM | 2.14 nM
 | 3.24 nM | 9.48 | O=C(c1ccc(Sc2ccc(F)cc2)nc1)N1CCCN(C2CCC2)CC1 [Example 83, (4-Cyclobutyl-[1,4]diazepan-1-yl)-[6-(4-fluoro-phenylsulfanyl)-pyridin-3-yl]-methanone] |  |  |  |  | 
 |  |  | O=C(c1ccc(Oc2ccccc2F)nc1)N1CCCN(C2CCC2)CC1 [Example 29, (4-Cyclobutyl-[1,4]diazepan-1-yl)-[6-(2-fluoro-phenoxy)-pyridin-3-yl]-methanone] | 1 nM | 20 nM |  | 0.813 nM | 3.55 nM

Compound | Kb (human H3 receptor; [4]) | Kb (Rat H3 [2]; [5]) | Human pA2 (human H3 receptor; [6]) | Ki [1] | Ki (Rat H3 [3]) | Rat pA2 (Rat H3 [2]; [7]) | Kb (human H3 receptor) | Kb (Rat H3 [2])
O=C(c1ccc(Oc2ccc(Cl)c(Cl)c2)nc1)N1CCCN(C2CCC2)CC1 [Example 14, (4-Cyclobutyl-[1,4]diazepan-1-yl)-[6-(3,4-dichloro-phenoxy)-pyridin-3-yl]-methanone] |  |  | 9.26 | 2 nM | 10 nM | 8.16 |  | 
O=C(c1ccc(Oc2cccc(Cl)c2)cn1)N1CCCN(C2CCC2)CC1 [Example 70, [5-(3-Chloro-phenoxy)-pyridin-2-yl]-(4-cyclobutyl-[1,4]diazepan-1-yl)-methanone trifluoroacetic acid salt] |  | 19.1 nM | 8.72 | 2 nM |  |  |  | 
O=C(c1ccc(Oc2ccc(Cl)cc2)cn1)N1CCCN(C2CCC2)CC1 [Example 68, [5-(4-Chloro-phenoxy)-pyridin-2-yl]-(4-cyclobutyl-[1,4]diazepan-1-yl)-methanone trifluoroacetic acid salt] |  | 15.8 nM | 8.61 | 2 nM |  |  |  | 
